Measurements taken from ChEMBL document CHEMBL1136065, “The synthesis and structure-activity relationships of 1,3-diaryl 1,2,4-(4H)-triazol-5-ones: a new class of calcium-dependent, large conductance, potassium (maxi-K) channel opener targeted for urge urinary incontinence” (Bioorg Med Chem Lett, 2002).

What was measured:
Rattus norvegicus [1] = species on record: Rattus norvegicus; test: Compound was tested for percentage inhibition of isometric force in response to a test compound in isolated rat bladder strips pre-contracted with carbachol at a concentration of 20 uM; type: functional
[2] = target: Calcium-activated potassium channel subunit alpha-1 KCNMA1 (Mus musculus) (UniProt Q08460); test: Compound was tested for its effect on maxi-K-mediated outward current in Xenopus laevis oocytes expressing the cloned maxi-K channel mslo at a concentration of 20 uM; settings: oocyte
Sequence of Calcium-activated potassium channel subunit alpha-1 KCNMA1 (Mus musculus) (Q08460 whole entry, looked up): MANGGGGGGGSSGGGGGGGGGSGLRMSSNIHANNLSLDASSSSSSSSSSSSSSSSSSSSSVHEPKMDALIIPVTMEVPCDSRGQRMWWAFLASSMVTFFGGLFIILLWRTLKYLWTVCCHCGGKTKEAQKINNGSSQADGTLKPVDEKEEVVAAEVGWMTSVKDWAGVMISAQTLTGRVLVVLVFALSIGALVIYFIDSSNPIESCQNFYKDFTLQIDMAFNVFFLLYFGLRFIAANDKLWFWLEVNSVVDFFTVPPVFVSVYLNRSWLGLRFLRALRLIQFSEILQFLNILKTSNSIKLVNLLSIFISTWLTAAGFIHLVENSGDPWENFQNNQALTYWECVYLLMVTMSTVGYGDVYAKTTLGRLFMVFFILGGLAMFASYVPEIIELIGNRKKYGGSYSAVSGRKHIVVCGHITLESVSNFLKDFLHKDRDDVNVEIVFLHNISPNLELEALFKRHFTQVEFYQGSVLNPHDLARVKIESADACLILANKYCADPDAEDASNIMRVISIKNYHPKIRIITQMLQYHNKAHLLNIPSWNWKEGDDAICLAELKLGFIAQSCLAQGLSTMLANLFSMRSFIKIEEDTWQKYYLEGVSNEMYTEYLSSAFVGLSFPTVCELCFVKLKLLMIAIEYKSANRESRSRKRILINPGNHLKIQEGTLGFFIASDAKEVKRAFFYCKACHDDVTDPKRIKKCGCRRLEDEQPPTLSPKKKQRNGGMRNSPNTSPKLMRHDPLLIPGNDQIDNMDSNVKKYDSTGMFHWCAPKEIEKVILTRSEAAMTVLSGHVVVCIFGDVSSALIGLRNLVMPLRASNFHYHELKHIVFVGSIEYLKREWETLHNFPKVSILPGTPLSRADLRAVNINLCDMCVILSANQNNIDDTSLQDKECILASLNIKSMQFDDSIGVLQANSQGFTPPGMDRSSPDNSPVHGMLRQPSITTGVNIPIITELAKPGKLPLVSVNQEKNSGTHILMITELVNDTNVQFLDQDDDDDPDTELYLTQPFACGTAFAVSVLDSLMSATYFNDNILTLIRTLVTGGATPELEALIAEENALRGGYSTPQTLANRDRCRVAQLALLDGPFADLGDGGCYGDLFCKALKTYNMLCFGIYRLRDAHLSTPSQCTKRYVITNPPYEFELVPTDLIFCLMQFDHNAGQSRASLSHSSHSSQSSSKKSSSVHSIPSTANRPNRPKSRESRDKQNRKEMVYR

Rattus norvegicus [3] = species on record: Rattus norvegicus; test: Compound was tested for percentage inhibition of isometric force in response to a test compound in isolated rat bladder strips pre-contracted with carbachol at a concentration of 3 uM; type: functional
[4] = target: Calcium-activated potassium channel subunit alpha-1 KCNMA1 (Homo sapiens) (UniProt Q12791); test: Compound was tested for its effect on maxi-K-mediated outward current in Xenopus laevis oocytes expressing the cloned maxi-K channel hslo at a concentration of 1 uM; settings: oocyte
Sequence of Calcium-activated potassium channel subunit alpha-1 KCNMA1 (Homo sapiens) (Q12791 whole entry, looked up): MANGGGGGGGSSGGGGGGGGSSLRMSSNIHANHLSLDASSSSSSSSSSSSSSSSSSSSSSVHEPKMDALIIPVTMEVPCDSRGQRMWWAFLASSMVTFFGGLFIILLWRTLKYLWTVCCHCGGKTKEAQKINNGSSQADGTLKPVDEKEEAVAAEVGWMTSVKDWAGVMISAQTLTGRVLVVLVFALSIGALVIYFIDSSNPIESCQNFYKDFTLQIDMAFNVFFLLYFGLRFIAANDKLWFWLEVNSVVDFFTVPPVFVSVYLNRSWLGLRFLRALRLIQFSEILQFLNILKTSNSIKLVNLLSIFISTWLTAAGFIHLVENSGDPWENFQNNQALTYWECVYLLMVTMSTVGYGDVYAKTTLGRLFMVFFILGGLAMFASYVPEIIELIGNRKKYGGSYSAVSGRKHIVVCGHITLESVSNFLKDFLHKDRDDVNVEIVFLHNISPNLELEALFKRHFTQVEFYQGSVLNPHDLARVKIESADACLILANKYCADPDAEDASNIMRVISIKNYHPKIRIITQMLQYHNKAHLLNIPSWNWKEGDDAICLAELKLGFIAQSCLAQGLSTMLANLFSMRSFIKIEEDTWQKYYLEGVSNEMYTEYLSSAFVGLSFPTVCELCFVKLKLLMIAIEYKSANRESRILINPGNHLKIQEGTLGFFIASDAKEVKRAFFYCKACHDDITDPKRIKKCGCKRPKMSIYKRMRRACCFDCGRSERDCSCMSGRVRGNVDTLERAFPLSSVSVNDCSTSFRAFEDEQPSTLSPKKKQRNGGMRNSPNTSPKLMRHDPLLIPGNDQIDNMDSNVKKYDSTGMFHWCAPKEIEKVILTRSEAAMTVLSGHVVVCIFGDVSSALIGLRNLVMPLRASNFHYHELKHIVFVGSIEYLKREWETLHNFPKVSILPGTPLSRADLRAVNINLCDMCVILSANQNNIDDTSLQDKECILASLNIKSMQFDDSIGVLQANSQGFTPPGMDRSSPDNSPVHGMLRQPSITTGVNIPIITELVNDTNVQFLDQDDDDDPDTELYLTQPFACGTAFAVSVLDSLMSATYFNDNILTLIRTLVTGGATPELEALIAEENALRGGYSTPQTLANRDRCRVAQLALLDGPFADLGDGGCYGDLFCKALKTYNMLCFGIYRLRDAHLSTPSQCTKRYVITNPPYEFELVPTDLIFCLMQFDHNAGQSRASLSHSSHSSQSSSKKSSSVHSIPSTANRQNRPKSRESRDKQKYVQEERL

[5] = target: Calcium-activated potassium channel subunit alpha-1 KCNMA1 (Mus musculus) (UniProt Q08460); test: Compound was tested for its effect on maxi-K-mediated outward current in Xenopus laevis oocytes expressing the cloned maxi-K channel mslo at a concentration of 10 uM; settings: oocyte

Structure (SMILES) | Increase [2] [%] | Increase [4] [%] | Increase [5] [%] | inhibition at 20 µM (Rattus norvegicus [1]) [%] | inhibition at 3 µM (Rattus norvegicus [3]) [%]
O=c1[nH]c(-c2ccc(C(F)(F)F)cc2)nn1-c1cc(Cl)ccc1O | 196.8 | – | – | 87 | 22
Oc1ccc(Cl)cc1-n1nc(-c2ccccc2)nc1O | – | 91.4 | – | 89.4 | 35
O=c1[nH]c2cc(C(F)(F)F)ccc2n1-c1cc(Cl)ccc1O | 131.8 | – | – | 8 | –
Oc1ccc(Cl)cc1-n1nc(-c2cc(C(F)(F)F)cc(C(F)(F)F)c2)nc1O | 154.2 | – | – | – | 15
Oc1ccc(Cl)cc1-n1nc(-c2ccc(C(F)(F)F)c(Cl)c2)nc1O | 198.5 | – | – | – | 5

Continued, in another order:

Increase [2] [%] | Increase [4] [%] | Increase [5] [%] | Structure (SMILES) | inhibition at 20 µM (Rattus norvegicus [1]) [%] | inhibition at 3 µM (Rattus norvegicus [3]) [%]
117.1 | – | – | Oc1ccc(Cl)cc1-n1nc(-c2ccccc2C(F)(F)F)nc1O | 90 | 34
175.5 | – | – | Oc1ccc(Cl)cc1-n1nc(-c2ccc(C(F)(F)F)cc2C(F)(F)F)nc1O | 94 | 46
– | – | 161.5 | Oc1ccc(Cl)cc1-n1nc(-c2cccc(C(F)(F)F)c2)nc1O | – | 42
